ChEMBL document CHEMBL1201862, “PubChem BioAssay data set” (2004)
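How tested: cells in 96-well plates exposed to compound for 48 hours at five concentrations. GI50 = concentration required for 50% inhibition of growth.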 The source made the active and inactive calls. Cut-off read from the data, not from the text of the source: active = GI50 up to about 1.1 µM and inactive = higher.

How the values were obtained:
Assay in all cases: NCI anticancer screen, dose series, 48 h
HCT-116 = tested on: HCT-116
UO-31 = tested on: UO-31
A498 = tested on: A498
NCI-H23 = tested on: NCI-H23
SNB-75 = tested on: SNB-75
MDA-N = tested on: MDA-N
UACC-257 = tested on: UACC-257
A549 = tested on: A549
SK-MEL-2 = tested on: SK-MEL-2
HL-60 = tested on: HL-60
MCF7 = tested on: MCF7
CAKI-1 = tested on: CAKI-1
RPMI-8226 = tested on: RPMI-8226
K562 = tested on: K562
Hs-578T = tested on: Hs-578T
786-0 = tested on: 786-0
HCT-15 = tested on: HCT-15
MDA-MB-435 = tested on: MDA-MB-435
ACHN = tested on: ACHN
IGROV-1 = tested on: IGROV-1

Measured: GI50

Nc1cc(S(N)(=O)=O)ccc1SSc1ccc(S(N)(=O)=O)cc1N
> 100 µM: HCT-15
inactive: HCT-116 > 100 µM | UO-31 > 100 µM | A498 > 100 µM | NCI-H23 > 100 µM | SNB-75 > 100 µM | MDA-N > 100 µM | UACC-257 > 100 µM | A549 > 100 µM | SK-MEL-2 > 100 µM | HL-60 > 100 µM | MCF7 > 100 µM | CAKI-1 > 100 µM | RPMI-8226 > 100 µM | K562 > 96.6 µM | Hs-578T > 100 µM | 786-0 > 100 µM | MDA-MB-435 > 100 µM | ACHN > 62.5 µM | IGROV-1 > 100 µM

COc1ccc2c(c1)c(=O)c1c(NCCCN(C)CCCNc3ccc4c(=O)n(CCN(C)C)c(=O)n5c6ccc(OC)cc6c(=O)c3c45)ccc3c(=O)n(CCN(C)C)c(=O)n2c31
< 0.0258 µM: HCT-15
active: HCT-116 < 0.01 µM | UO-31 < 0.0181 µM | A498 0.305 µM | NCI-H23 < 0.0324 µM | SNB-75 < 0.0175 µM | MDA-N 0.17 µM | UACC-257 0.352 µM | A549 < 0.01 µM | SK-MEL-2 0.514 µM | HL-60 0.0914 µM | MCF7 < 0.01 µM | CAKI-1 < 0.015 µM | RPMI-8226 < 0.01 µM | K562 < 0.01 µM | Hs-578T 0.105 µM | 786-0 < 0.01 µM | MDA-MB-435 < 0.0149 µM | ACHN < 0.01 µM | IGROV-1 < 0.01 µM

COc1cccc(C2CC(C)(O)Oc3cc4c(cc32)OCO4)c1O (stereo not given)
21.7 µM: HCT-15
inactive: HCT-116 10.7 µM | UO-31 35.6 µM | A498 41.7 µM | NCI-H23 30.4 µM | SNB-75 14.2 µM | MDA-N 2.72 µM | UACC-257 39.4 µM | A549 34.4 µM | SK-MEL-2 22.8 µM | HL-60 31 µM | MCF7 11.4 µM | CAKI-1 39.4 µM | RPMI-8226 32.5 µM | K562 9.68 µM | Hs-578T 15.4 µM | 786-0 24.8 µM | MDA-MB-435 2.78 µM | ACHN 31.8 µM | IGROV-1 27.9 µM

COc1cccc(NC(=O)CC(=O)N2N=C(C)C(/N=N\c3ccc(S(=O)(=O)c4ccc(/N=N/C5C(=O)N(C(=O)CC(=O)Nc6cccc(OC)c6)N=C5C)cc4)cc3)C2=O)c1 (stereo not given)
> 100 µM: HCT-15
inactive: HCT-116 > 100 µM | UO-31 > 100 µM | A498 > 100 µM | NCI-H23 > 100 µM | SNB-75 > 100 µM | MDA-N > 100 µM | UACC-257 > 100 µM | A549 > 100 µM | SK-MEL-2 > 100 µM | HL-60 > 100 µM | MCF7 > 100 µM | CAKI-1 > 100 µM | RPMI-8226 > 100 µM | K562 > 100 µM | Hs-578T > 100 µM | 786-0 > 100 µM | MDA-MB-435 > 100 µM | ACHN > 100 µM | IGROV-1 > 100 µM

COc1cc(NC(C)=O)ccc1C(=O)N/N=C/c1ccc(Cl)cc1Cl
83 µM: HCT-15
inactive: HCT-116 80.5 µM | UO-31 43.1 µM | A498 24.1 µM | NCI-H23 71.9 µM | SNB-75 13.6 µM | MDA-N 23.6 µM | UACC-257 27 µM | A549 48 µM | SK-MEL-2 19.2 µM | HL-60 46.6 µM | MCF7 4.42 µM | CAKI-1 39.6 µM | RPMI-8226 65.6 µM | K562 50.2 µM | Hs-578T 32.7 µM | 786-0 24.9 µM | MDA-MB-435 19.6 µM | ACHN 31.4 µM | IGROV-1 30.2 µM

Cc1cc2nc(C=C(C(F)(F)F)C(F)(F)F)oc2cc1C
3.37 µM: HCT-15
active: MCF7 0.472 µM
inactive: HCT-116 1.38 µM | UO-31 4.11 µM | A498 > 10 µM | NCI-H23 2.49 µM | SNB-75 4.55 µM | MDA-N > 10 µM | UACC-257 > 10 µM | A549 5.12 µM | SK-MEL-2 > 10 µM | HL-60 2.03 µM | CAKI-1 2.42 µM | RPMI-8226 1.55 µM | K562 2.25 µM | Hs-578T 3.37 µM | 786-0 1.96 µM | MDA-MB-435 2.14 µM | ACHN 5.06 µM | IGROV-1 2.91 µM

Cc1nc2nn[nH]n2c(=O)c1CCO
> 100 µM: HCT-15
inactive: HCT-116 > 100 µM | UO-31 > 100 µM | A498 > 100 µM | NCI-H23 > 100 µM | SNB-75 26.6 µM | MDA-N > 100 µM | UACC-257 > 100 µM | A549 > 100 µM | SK-MEL-2 > 100 µM | HL-60 > 100 µM | MCF7 > 100 µM | CAKI-1 > 100 µM | RPMI-8226 > 100 µM | K562 > 100 µM | Hs-578T > 100 µM | 786-0 > 100 µM | MDA-MB-435 > 100 µM | ACHN > 100 µM | IGROV-1 > 100 µM
